# Data published in patent US12629415B2, “Vaccine adjuvants” (THE PROVOST, FELLOWS, FOUNDATION SCHOLARS, AND THE OTHER …, priority 2018, dated 2026).
# Entries after “also recorded” stand apart in the source; their conditions may differ.
# Key:
# bovine PBMCs [1] = assay: Bovine IL-1β ELISA on stimulated PBMCs; type: cell-based, cattle; settings: for IL-1β secretion by bovine PBMCs in the absence of LPS priming: polydA:dT 5, 2 or 1 μg/ml or alum 50 μg/ml
# Description: Bovine peripheral blood mononuclear cells were isolated from whole blood samples collected in 9m1 vacutainers containing Heparin anticoagulant. PBMCs were spun and separated using leucosep tubes (Cruinn) and a density gradient histopaque 1077 (Sigma-Aldrich) at a speed of 1200 g for 20 minutes. Red blood cell contamination was eliminated using sterile 0.25% sodium chloride (Baxter) as a lysis buffer. The cells were subsequently washed twice in PBS at a speed of 600 g for 10 minutes to remove impurities.
# Cells were counted using a haemocytometer, microscope and trypan blue (Sigma Aldrich) and seeded at appropriate densities in tissue culture plates (Cruinn) containing media. The cells were incubated at 37° C. at 5% CO2 treated within hours of plating to avoid unwanted cell death.
# […] This concentration was selected after testing effects of a range of different LPS concentrations ranging from 1 pg/ml-1 μg/ml. […] Similar to LPS, adjuvant concentrations were selected after testing multiple different doses. After stimulation, the cells were cultured for an additional 24 hours. Supernatants were harvested and stored at −20° C. for further analysis.
# Capture antibodies (50 μl/well), diluted in the appropriate buffers, were dispensed into the wells of high binding plates (Greiner Bio-One) and incubated overnight at room temperature or 4° C. For analysis of IL-17, the ELISA plates were pre-coated with capture antibody by the manufacturing before delivery. The wells were washed with PBS/Tween 3 times and the plates were then incubated with 150 μl of blocking buffer for 1 hour at room temperature. The plates were washed again before supernatant (neat or diluted) and recombinant standards were added for 1 hour at room temperature. Following this, the plates were washed and 50 μl of detection antibody was added to the wells for a period of 1 or 2 hours at room temperature. After washing, 50 μl diluted streptavidin-HRP was added to the plate for between 30 minutes and 1 hour. After the final wash, 50 μl of 3,3′-, 5,5′-Tetramethylbenzidine (TMB) substrate was added and the plates were incubated in the dark. The reaction was stopped by addition of 1M sulphuric acid and the absorbance readings were measured at 450 nm using a microtitre plate reader. The cytokine concentrations were calculated using a linear regression standard curve from recombinant cytokines of known concentration. Skanit™ software was used to estimate values.
# PBMCs or CBMCs [2] = assay: CXCL10 (IP-10) ELISA; type: cell-based, human; settings: CBMCs compared with PBMCs
# Description: (§1) Poly(I:C) (5 μg/ml) (Invivogen), Poly(dA:dT) (5 μg/ml) (Sigma-Aldrich), 2′3′ cGAMP (10 μg/ml), 5′ triphosphate double stranded RNA (5′ ppp dsRNA) (2.5 μg/ml) and HSV-60 (2 μg/ml) (all from Invivogen) were transfected into PBMCs or CBMCs using TransIT-X2 (Mirus).
# (§2) Measurement of cytokines—HEK Blue TNFα/IFNα/β Assays were performed as per the manufacturer's (Invivogen) instructions using Quanti-Blue Detection Reagent. SEAP levels were determined using a spectrophotometer plate reader at 630 nm. IFNα (3425-1H-6, Mabtech) and IP-10 (DY266, R&D Systems) were detected by sandwich ELISA. IFNα ELISA used pan specific IFNα antibodies, which allows detection of IFNα subtypes 1/13, 2, 4, 5, 6, 7, 8, 10, 14, 16 and 17. BioLegend LEGENDplex™ Human Inflammation Panel (13-plex) was carried out as per manufacturer's (Biolegend) instructions to determine levels of IFNγ, IL-10, IL-12p70 and IL-23. A BD LSR Fortessa cell analyser was used to acquire samples and BioLegend LEGENDplex™ software was used for analysis.
# bovine PBMCs [3] = assay: Real-time PCR of gene expression in bovine PBMCs; type: cell-based, cattle; settings: for IFN-α gene expression / IFN-β gene expression: vs unstimulated cells; for ISG-15 expression: after 12 hours (text), 6 hours (FIG. 23 legend)
# Description: RNA extraction was conducted using Trizol and an RNeasy Plus Mini Kit (Qiagen Ltd). Tissue culture plates of stimulated cells were spun and supernatants were extracted while the remaining adherent cells were lysed using Trizol. Chloroform (200 μl per 1 ml of Trizol) was then added to the cell lysates and mixed vigorously before being centrifuged at 12000 g for 15 minutes at 4° C. The resulting aqueous layer of RNA was transferred to another tube containing 1 volume of ethanol. The mixture was then added to an RNeasy column and processed according to the manufacturer's instructions (Qiagen Ltd). After rigorous purification, the RNA was isolated and quantified using NanoDrop ND-1000 UV-Vis Spectrophotometer (NanoDrop Technologies Inc.). Finally the samples were stored at −80° C.
# RNA was converted to cDNA using a High-Capacity cDNA Reverse transcription Kit (Applied Biosystems). Components needed for reverse transcriptase included RNA, RT 5× buffer, RNase Out, random hexamers, dNTP's and reverse transcriptase. The process was conducted under the following conditions: 25° C. for 10 minutes, 42° C. for 60 minutes, 95° C. for 3 minutes and hold at 4° C. The resulting cDNA was stored at −20° C.
# Using, SYBR Green intercalating dye (Applied Biosystems Ltd), qRT-PCR was performed using Applied Biosystems 7500 Fast Real-Time PCR System. Each well on the qRT-PCR plate was comprised of SYBR Green dye, nuclease free H2O, cDNA, forward and reverse primers. Two negative controls were included to ensure no contamination was present. The cycle parameters of the process were: 95° C. for 20 seconds, 40 cycles at 95° C. for 3 seconds, 60° C. for 30 seconds followed by the dissociation steps which were: 95° C. for 15 seconds, 60° C. for 60 seconds, 95° C. for 15 seconds and 60° C. for 15 seconds. The Ct (threshold cycle) values from both the target and reference gene were used to measure the concentration of the target gene in the PCR reaction.
# PBMCs or CBMCs [4] = assay: HEK-Blue TNFα assay on supernatants; type: cell-based, human; settings: CBMCs compared with PBMCs; 4, 8 or 24 hours
# Description: as §1, §2
# PBMCs or CBMCs [5] = assay: IFNα sandwich ELISA on supernatants; type: cell-based, human; settings: CBMCs compared with PBMCs; 8 or 24 h
# Description: as §1, §2
# [6] = polydA:dT 1 μg/ml, 6 hours, listed as PolydA:dT
# [7] = polydA:dT 1 μg/ml, 6 hours, listed as poly(dA:dT)
# [8] = polydA:dT 1 μg/ml, 6 hours, listed as polydA:dT
substance,measurement,setting,value
poly(deoxyadenylic-thymidylic) acid [Poly(dA:dT)],IL-1β secretion by bovine cells (priming not given),bovine PBMCs [1],enhanced by polydA:dT; also recorded: enhanced IL-1β secretion from bovine cells; also recorded: enhances IL-1β secretion in a NLRP3 independent manner; also recorded: robust driver of IL-1β secretion and IL-18 expression in cattle
same,IL-1β secretion by PBMCs from 1 month old calves following LPS priming,"bovine PBMCs [1]; 5 neonatal calves, 24 hours",PBMCs from all 5 neonates secreted IL-1β
same,IL-1β secretion by PBMCs from neonatal (1 month old) calves in the absence of LPS priming,"bovine PBMCs [1]; 5 neonatal calves, 24 hours",can secrete IL-1β in response to polydA:dT without LPS priming; also recorded: secreted processed IL-1β following polydA:dT stimulation
same,IL-1β secretion by bovine PBMCs primed with LPS,"bovine PBMCs [1]; LPS 100 pg/ml, polydA:dT 5, 2 or 1 μg/ml, 24 hours",secreted IL-1β when stimulated with polydA:dT at various concentrations
same,IL-1β secretion by PBMCs from calves at 2 months of age,"bovine PBMCs [1]; absence or presence of LPS, 24 hours",processed IL-1β was present in supernatants
same,"IL-1β concentrations, presence versus absence of LPS","bovine PBMCs [1]; bovine PBMCs, 24 hours",no significant difference in IL-1β concentrations
same,IL-1β secretion by bovine PBMCs in the absence of LPS priming,"bovine PBMCs [1]; 24 hours, listed as PolydA:dT",capable of driving IL-1β secretion in the absence of priming with LPS
same,IL-1β secretion by bovine PBMCs in the absence of LPS priming,"bovine PBMCs [1]; 24 hours, listed as polydA:dT",all calves secreted processed IL-1β
same,CXCL10 protein secretion,PBMCs or CBMCs [2],no significant difference in the CXCL10 response between PBMCs or CBMCs
same,IFI-16 expression,"bovine PBMCs [3]; polydA:dT 1 μg/ml transfected, 12 hours",enhanced in response to polydA:dT; also recorded: regulates IFI-16 expression; also recorded: IFI-16 expression is enhanced by polydA:dT
same,IL-18 expression,"bovine PBMCs [3]; polydA:dT 1 μg/ml, 6 hours",enhanced by polydA:dT; also recorded: increased in response to polydA:dT after 6 hours; also recorded: can drive enhanced IL-18 expression; also recorded: increased the expression of IL-18; also recorded: robust driver of IL-1β secretion and IL-18 expression in cattle
same,IFN-α gene expression,bovine PBMCs [3]; [6],"increases type I IFN expression by bovine PBMCs; also recorded: enhanced IFN-α, IFN-β and ISG-15 expression by bovine PBMCs"
same,IFN-β gene expression,bovine PBMCs [3]; [6],"increases type I IFN expression by bovine PBMCs; also recorded: enhanced IFN-α, IFN-β and ISG-15 expression by bovine PBMCs"
same,IFN-α gene expression,bovine PBMCs [3]; [7],enhanced type 1 interferon secretion
same,IFN-β gene expression,bovine PBMCs [3]; [7],enhanced type 1 interferon secretion
same,IFN-α gene expression,bovine PBMCs [3]; [8],enhanced after 6 hours in comparison to unstimulated cells; also recorded: increases IFN-α and IFN-β expression in bovine PBMCs
same,IFN-β gene expression,bovine PBMCs [3]; [8],enhanced after 6 hours in comparison to unstimulated cells; also recorded: increases IFN-α and IFN-β expression in bovine PBMCs
same,ISG-15 expression,"bovine PBMCs [3]; polydA:dT 1 μg/ml, listed as PolydA:dT","enhanced IFN-α, IFN-β and ISG-15 expression by bovine PBMCs"
same,ISG-15 expression,"bovine PBMCs [3]; polydA:dT 1 μg/ml, listed as polydA:dT",increased in response polydA:dT after 12 hours; also recorded: ISG-15 expression is increased in bovine PBMCs
same,TNFα production,PBMCs or CBMCs [4],significantly more TNFα production from neonatal cells than from adult cells
same,IFNα secretion (ELISA),PBMCs or CBMCs [5],equivalent or enhanced CNA sensor responses in neonates compared to adults
